# Test results taken from patent publication US8530493B2, “Indolopyridines as Eg5 kinesin modulators” (4SC AG, priority 2006, dated 2013).
# Experiments:
# [1] = system: RKO p27 induced (arrested) colon adenocarcinoma cells; experiment: Alamar Blue cell viability assay, RKO p27 induced by Ponasterone A (arrested); type: cell-based; details: Homo sapiens, RKOp27, Table B1, cells arrested by Ponasterone A-induced p27Kip1, 72 hours, read-out: −log EC50 RKO p27 induced (arrested) (converted)
# Method: (§1) To determine the cell cycle specific mode of action, subclones of RKO colon adenocarcinoma cells (RKOp21 or RKOp27 as described by Schmidt et al. in Oncogene 19, 2423-2429; 2000) are seeded into 96 well flat bottom plates at a density of 16000 cells per well in a volume of 50 μl per well in DMEM growth medium with 10% FCS containing 10 μM Ponasterone A. 24 hours after seeding the 50 μl each of the compound dilutions in DMEM medium are added into each well of the 96-well plate. Each compound dilution is tested as triplicates. Wells containing untreated control cells are filled with 50 μl DMEM medium containing 1% DMSO. The cells are then incubated with the substances for 72 hours at 37° C. in a humidified atmosphere containing 5% carbon dioxide. To determine the viability of the cells, 10 μl of an Alamar Blue solution (Biosource) are added and the fluorescence is measured at an extinction of 544 nm and an emission of 590 nm. For the calculation of the cell viability the emission value from untreated cells is set as 100% viability and the emission rates of treated cells are set in relation to the values of untreated cells. Viabilities are expressed as % values. The Graphpad Prism program (GraphPad Software, Inc) is used for the calculation of EC50 values out of the obtained dose-response curves. Viability is compared of proliferating cells grown in the absence of the inducer Ponasterone A, versus viability of cells arrested by the expression of ectopic p27Kip1 induced by Ponasterone A.
# (§2) Representative values for anti-proliferation/cytotoxicity [measured as −log EC50 (mol/l)] determined in the aforementioned assays follow from the following tables B1, B2 and B3, in which the numbers of the compounds correspond to the numbers of the examples.
# [2] = system: RKO p27 uninduced (proliferating) colon adenocarcinoma cells; experiment: Alamar Blue cell viability assay, RKO p27 uninduced (proliferating); type: cell-based; details: Homo sapiens, RKOp27, Table B1, anti-proliferative/cytotoxic activity, 72 hours, read-out: −log EC50 RKO p27 uninduced (proliferating) (converted)
# Method: The anti-proliferative/cytotoxic activity of the compounds described herein can be tested on subclones of RKO human colon adenocarcinoma cells (Schmidt et al., Oncogene 19, 2423-2429; 2000) using the Alamar Blue cell viability assay (described in O'Brien et al. Eur J Biochem 267, 5421-5426, 2000). The compounds are dissolved as 10 mM solutions in DMSO and subsequently diluted in semi-logarithmic steps. DMSO dilutions are further diluted 1:100 into Dulbecco's modified Eagle's medium (DMEM) containing 10% fetal calf serum to a final concentration twice as much as the final concentration in the test. RKO subclones are seeded into 96 well flat bottom plates at a density of 4000 cells per well in a volume of 50 μl per well. 24 hours after seeding the 50 μl each of the compound dilutions in DMEM medium are added into each well of the 96 well plate. Each compound dilution is tested as triplicates. Wells containing untreated control cells are filled with 50 μl DMEM medium containing 1% DMSO. The cells are then incubated with the substances for 72 hours at 37° C. in a humidified atmosphere containing 5% carbon dioxide. To determine the viability of the cells, 10 μl of an Alamar Blue solution (Biosource) are added and the fluorescence is measured at an extinction of 544 nm and an emission of 590 nm. For the calculation of the cell viability the emission value from untreated cells is set as 100% viability and the emission rates of treated cells are set in relation to the values of untreated cells. Viabilities are expressed as % values. The Graphpad Prism program is used for the calculation of EC50 values for anti-proliferative/cytotoxic activity out of the obtained dose-response curves.
# as §1, §2
Structure (SMILES),melting point [°C],EC50 [1] [nM],EC50 [2] [nM]
"CN(C)CCN1C(=O)N2[C@H](c3cccc(O)c3)c3[nH]c4ccc(Cl)cc4c3C[C@@]2(C)C1=O (racemic) [Example 9, (3aSR,10RS)-6-Chloro-2-(2-dimethylamino-ethyl)-10-(3-hydroxy-phenyl)-3a-methyl-3a,4,9,10-tetrahydro-2,9,10a-triaza-cyclopenta[b]fluorene-1,3-dione]",283 to 286,≥ 3160,≤ 39.8
"COc1ccc2[nH]c3c(c2c1)C[C@@]1(C)C(=O)N(CCn2ccnc2)C(=O)N1[C@@H]3c1cccc(O)c1 (racemic) [Example 13, (3aSR,10RS)-10-(3-Hydroxy-phenyl)-2-(2-imidazol-1-yl-ethyl)-6-methoxy-3a-methyl-3a,4,9,10-tetrahydro-2,9,10a-triaza-cyclopenta[b]fluorene-1,3-dione]",321 to 324,≥ 3160,39.8 to 251
"COc1ccc2[nH]c3c(c2c1)C[C@@]1(C)C(=O)N(CCBr)C(=O)N1[C@@H]3c1cccc(O)c1 (racemic) [Example 24, (3aSR,10RS)-2-(2-Bromo-ethyl)-10-(3-hydroxy-phenyl)-6-methoxy-3a-methyl-3a,4,9,10-tetrahydro-2,9,10a-triaza-cyclopenta[b]fluorene-1,3-dione]",299 to 302,≥ 3160,39.8 to 251
"COc1ccc2[nH]c3c(c2c1)C[C@@]1(C)C(=O)N(CCN2CCN(C)CC2)C(=O)N1[C@@H]3c1cccc(O)c1 (racemic) [Example 12, (3aSR,10RS)-10-(3-Hydroxy-phenyl)-6-methoxy-3a-methyl-2-[2-(4-methyl-piperazin-1-yl)ethyl]-3a,4,9,10-tetrahydro-2,9,10a-triaza-cyclopenta[b]fluorene-1,3-dione]",224 to 227,≥ 3160,39.8 to 251
"CC(C)N(C)CCN1C(=O)N2[C@H](c3cccc(O)c3)c3[nH]c4ccc(Cl)cc4c3C[C@@]2(C)C1=O (racemic) [Example 39, (3aSR,10RS)-6-Chloro-10-(3-hydroxy-phenyl)-2-[2-(isopropyl-methyl-amino)-ethyl]-3a-methyl-3a,4,9,10-tetrahydro-2,9,10a-triaza-cyclopenta[b]fluorene-1,3-dione]",–,≥ 3160,≤ 39.8
"CC[C@@]12Cc3c([nH]c4ccc(OC)cc34)[C@@H](c3cccc(O)c3)N1C(=O)N(CCN(C)C)C2=O (racemic) [Example 18, (3aSR,10RS)-2-(2-Dimethylamino-ethyl)-3a-ethyl-10-(3-hydroxy-phenyl)-6-methoxy-3a,4,9,10-tetrahydro-2,9,10a-triaza-cyclopenta[b]fluorene-1,3-dione]",–,≥ 3160,≤ 39.8
"COc1ccc2[nH]c3c(c2c1)C[C@@]1(C)C(=O)N(CCNC2CC2)C(=O)N1[C@@H]3c1cccc(O)c1 (racemic) [Example 53, (3aSR,10RS)-2-(2-Cyclopropylamino-ethyl)-10-(3-hydroxy-phenyl)-6-methoxy-3a-methyl-3a,4,9,10-tetrahydro-2,9,10a-triaza-cyclopenta[b]fluorene-1,3-dione]",–,≥ 3160,≤ 39.8
"COc1ccc2[nH]c3c(c2c1)C[C@@]1(C)C(=O)N(CCNCC(C)C)C(=O)N1[C@@H]3c1cccc(O)c1 (racemic) [Example 49, (3aSR,10RS)-10-(3-Hydroxy-phenyl)-2-(2-isobutylamino-ethyl)-6-methoxy-3a-methyl-3a,4,9,10-tetrahydro-2,9,10a-triaza-cyclopenta[b]fluorene-1,3-dione]",–,≥ 3160,≤ 39.8
"CCOc1ccc2[nH]c3c(c2c1)C[C@@]1(C)C(=O)N(CCN(C)C)C(=O)N1[C@@H]3c1cccc(O)c1 (racemic) [Example 23, (3aSR,10RS)-2-(2-Dimethylamino-ethyl)-6-ethoxy-10-(3-hydroxy-phenyl)-3a-methyl-3a,4,9,10-tetrahydro-2,9,10a-triaza-cyclopenta[b]fluorene-1,3-dione]",–,≥ 3160,≤ 39.8
"C[C@@]12Cc3c([nH]c4ccc(Cl)cc34)[C@@H](c3cccc(O)c3)N1C(=O)N(CCN1CCCC1)C2=O (racemic) [Example 17, (3aSR,10RS)-6-Chloro-10-(3-hydroxy-phenyl)-3a-methyl-2-(2-pyrrolidin-1-yl-ethyl)-3a,4,9,10-tetrahydro-2,9,10a-triaza-cyclopenta[b]fluorene-1,3-dione]",–,≥ 3160,≤ 39.8
"C[C@@]12Cc3c([nH]c4ccc(Cl)cc34)[C@@H](c3cccc(O)c3)N1C(=O)N(CCn1ccnc1)C2=O (racemic) [Example 31, (3aSR,10RS)-6-Chloro-10-(3-hydroxy-phenyl)-2-(2-imidazol-1-yl-ethyl)-3a-methyl-3a,4,9,10-tetrahydro-2,9,10a-triaza-cyclopenta[b]fluorene-1,3-dione]",–,≥ 3160,39.8 to 251
"COc1ccc2[nH]c3c(c2c1)C[C@@]1(C)C(=O)N(CCCn2ccnc2)C(=O)N1[C@@H]3c1cccc(O)c1 (racemic) [Example 20, (3aSR,10RS)-10-(3-Hydroxy-phenyl)-2-(3-imidazol-1-yl-propyl)-6-methoxy-3a-methyl-3a,4,9,10-tetrahydro-2,9,10a-triaza-cyclopenta[b]fluorene-1,3-dione]",–,≥ 3160,≤ 39.8
"CCOc1ccc2[nH]c3c(c2c1)C[C@@]1(C)C(=O)N(CCN2CCC2)C(=O)N1[C@@H]3c1cccc(O)c1 (racemic) [Example 46, (3aSR,10RS)-2-(2-Azetidin-1-yl-ethyl)-6-ethoxy-10-(3-hydroxy-phenyl)-3a-methyl-3a,4,9,10-tetrahydro-2,9,10a-triaza-cyclopenta[b]fluorene-1,3-dione]",–,≥ 3160,≤ 39.8
"C[C@@]12Cc3c([nH]c4ccc(Cl)cc34)[C@@H](c3cccc(O)c3)N1C(=O)N(CCN1CCC1)C2=O (racemic) [Example 29, (3aSR,10RS)-2-(2-Azetidin-1-yl-ethyl)-6-chloro-10-(3-hydroxy-phenyl)-3a-methyl-3a,4,9,10-tetrahydro-2,9,10a-triaza-cyclopenta[b]fluorene-1,3-dione]",–,≥ 3160,≤ 39.8
"CN(C)CCN1C(=O)N2[C@H](c3cccc(O)c3)c3[nH]c4ccc(OC(F)F)cc4c3C[C@@]2(C)C1=O (racemic) [Example 43, (3aSR,10RS)-6-(1,1-Difluoro-methoxy)-2-(2-dimethylamino-ethyl)-10-(3-hydroxy-phenyl)-3a-methyl-3a,4,9,10-tetrahydro-2,9,10a-triaza-cyclopenta[b]fluorene-1,3-dione]",–,≥ 3160,≤ 39.8
C[C@@]12Cc3c([nH]c4ccc(Cl)cc34)[C@@H](c3cccc(O)c3)N1C(=O)N(CCBr)C2=O (racemic),262 to 264,–,–
"COc1ccc2[nH]c3c(c2c1)C[C@@]1(C)C(=O)N(CCN2CCC(F)(F)C2)C(=O)N1[C@@H]3c1cccc(O)c1 (racemic) [Example 34, (3aSR,10RS)-2-[2-(3,3-Difluoro-pyrrolidin-1-yl)-ethyl]-10-(3-hydroxy-phenyl)-6-methoxy-3a-methyl-3a,4,9,10-tetrahydro-2,9,10a-triaza-cyclopenta[b]fluorene-1,3-dione]",–,≥ 3160,39.8 to 251
